Data reported in US12329745B2, “Methods and compositions for treating glucocorticoid excess” (Sparrow Pharmaceuticals, Inc., priority 2022, dated 2025).
Where two headings read alike, the source gives them in different places.

Tests used:
[1] = system: urine tetrahydrocortisone; assay: Urine tetrahydrocortisone (excreted cortisone metabolite; liver cortisone levels); format: in vivo, human; details: healthy adults
Procedure: In healthy adults administered a single dose of 10, 20, or 50 mg SPI-62 (n=40), the least squares mean (standard error) tetrahydrocortisone was 32.71 (1.149) […] compared to 9.19 (2.300) mol after a single dose of matching placebo (n=10). In the same subjects after 14 daily doses, tetrahydrocortisone was 42.73 (1.968) mol for SPI-62 and 8.51 (0.410) mol for placebo. Similar results were also observed in elderly adults.

[2] = system: serum cortisone; assay: Serum cortisone and cortisol in patients with painful diabetic peripheral neuropathy; format: in vivo, human; details: 10 mg for 6 weeks
[3] = target: T1, brain HSD-1 (Homo sapiens, UniProt P28845); assay: Brain HSD-1 occupancy by PET, competition with [11C]AS2471907; format: in vivo; details: single dose 3 mg
T1 construct: Brain HSD-1 occupancy following a single dose of SPI-62 3 mg; from tissue; host or cells: brain in vivo
T1 sequence (P28845 whole entry): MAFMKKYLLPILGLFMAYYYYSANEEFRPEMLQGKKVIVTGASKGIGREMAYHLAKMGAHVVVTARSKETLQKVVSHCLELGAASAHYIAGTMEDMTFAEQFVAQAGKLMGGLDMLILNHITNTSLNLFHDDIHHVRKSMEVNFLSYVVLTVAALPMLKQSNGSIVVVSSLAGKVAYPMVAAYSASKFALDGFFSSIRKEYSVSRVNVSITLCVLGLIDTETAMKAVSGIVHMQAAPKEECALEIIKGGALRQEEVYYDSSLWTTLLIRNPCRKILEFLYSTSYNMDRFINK
Procedure: Brain HSD-1 occupancy following a single dose of SPI-62 3 mg, assessed by competition with the HSD-1-specific PET ligand [^11C]AS2471907, was 84-90% at 3.3 to 25 hours, 56-83% at 42 to 46 hours, 36 to 45% at 139 hours, and 26% at 189 hours. The pharmacologic half-life of SPI-62 in brain is, as expected, shorter than that in liver.

[4] = Human plasma pharmacokinetics of SPI-62; format: in vivo; details: for Cmax: human, plasma, oral
Procedure: The single- and multiple-dose pharmacokinetics of SPI-62 were well-characterized by a two-compartment TMDD population pharmacokinetics model with 3 transit absorption compartments and an estimated target capacity of ˜2.5 mg of SPI-62 which comports well with the dose range in which pharmacokinetic nonlinearity is prominent.

[5] = target: T2, HSD-1 (Homo sapiens, UniProt P28845); assay: Surface plasmon resonance binding kinetics in presence of NADPH (residence time); details: 300 μM NADPH; reciprocal of the dissociation rate constant; read-out: Residence Time (converted)
T2 sequence (P28845 whole entry): as above
Source text: Pseudo-irreversible HSD-1 inhibitors can be identified via in vitro enzyme kinetics evaluation, in which they are expected to show longer enzyme residence times compared to other HSD-1 inhibitors. Surface plasmon resonance (SPR) is the resonant oscillation of conduction electrons at the interface between negative and positive permittivity material stimulated by incident light. When a protein is bound to a surface, SPR can be used to detect ligand binding to the protein. […] Association and dissociation of test compounds were monitored in the presence of 300 µM NADPH throughout the experiment.

[6] = target: purified human HSD-1 (Homo sapiens, UniProt P28845); assay: In vitro inhibition of purified human HSD-1; format: biochemical
Sequence of purified human HSD-1 (P28845 whole entry): as above

[7] = target: T3, human HSD-1 expressed in CHO cells (Homo sapiens, UniProt P28845); assay: Inhibition of human HSD-1 expressed in CHO cells; format: cell-based
T3 construct: expressed in transfected cells; host or cells: CHO cells
T3 sequence (P28845 whole entry): as above

[8] = Phase 2 trial 3662-CL-0049 in painful diabetic peripheral neuropathy: TC, glucose, HbA1c, TG; format: in vivo, human
Procedure: Analyses of covariance were conducted to analyze total cholesterol (TC), glucose, glycated hemoglobin (HbA1c), and triglycerides (TG), with baseline value as the covariate and a baseline*treatment interaction term, in patients with painful diabetic peripheral neuropathy following daily administration of SPI-62 or placebo. Data were obtained from study 3662-CL-0049, a Phase 2 randomized, double-blind, placebo- and active-controlled clinical trial of the safety and efficacy of SPI-62 in subjects with painful diabetic peripheral neuropathy.

[9] = Clinical effective daily dose and side effects of HSD-1 inhibitors; details: human, in vivo
Procedure: Pseudo-irreversible HSD-1 inhibitors might have additional advantages over other HSD-1 inhibitors. For example, with durable pharmacologic effect, pseudo-irreversible HSD-1 inhibitors are more amenable to less than daily dosing including depot formulations and less likely to show decreased efficacy based on imperfect patient compliance. Additionally, HSD-1 in the human body appears to become completely occupied with approximately 3 mg of a potent small molecule inhibitor. Because pseudo-irreversible inhibitors, once bound, distribute only slowly off HSD-1 a low chronic dose is possible. Several pseudo-irreversible HSD-1 inhibitors, such as SPI-62, ABT-384, MK-0736, and MK-0916, have effective dose ranges below 10 mg daily.

[10] = target: T2, HSD-1; details: both, in vivo

Cn1c(-c2ccc(C(N)=O)cc2F)nnc1C(C)(C)Oc1c(F)cc(Cl)cc1F [SPI-62, 4-(5-(2-(4-chloro-2,6-difluorophenoxy)propan-2-yl)-4-methyl-4H-1,2,4-triazol-3-yl)-3-fluorobenzamide]
urine tetrahydrocortisone, least squares mean (standard error) ([1]; after 14 daily doses): 42.73 (1.968) mol
urine tetrahydrocortisone, least squares mean (standard error) ([1]; single dose of 10, 20, or 50 mg (n=40)): 32.71 (1.149) mol
serum cortisol [2]: did not change
serum cortisone ([2]; last day of study drug administration (n=36)): 56.0 (2.37) nM
serum cortisone ([2]; two weeks later): 49.5 (1.75) nM
brain HSD-1 occupancy ([3]; 3.3 to 25 hours): 84-90%
brain HSD-1 occupancy ([3]; 42 to 46 hours): 56-83%
unbound concentration corresponding to Cmax ([4]; 0.2 mg daily for 14 days): < 0.25 nM
plasma levels after 14 days of dosing, dose proportionality ([4]; doses of 0.2 to 50 mg): approximately dose-proportional
Cmax ([4]; 0.2 mg, 0.2 mg daily for 14 days, last dosing day, read-out: mean maximum plasma drug concentration (Cmax)): < 1 ng/mL
Cmax ([4]; 1 mg, single dose 1 mg, read-out: mean Cmax): < 0.05 ng/mL
Cmax ([4]; multiple doses 0.2 to 50 mg, read-out: Cmax means): 1 to 835 ng/mL
Cmax ([4]; single doses of 6 to 60 mg, read-out: Cmax means): 28 to 595 ng/mL
plasma drug levels (all below the LLOQ) ([4]; single 1 mg dose): < 0.1 ng/mL
unbound concentration corresponding to Cmax ([4]; single dose 1 mg): < 0.012 nM
plasma exposures after single doses, dose proportionality ([4]; single doses, 0.7 to 3 mg much lower dose-normalized levels): substantial non-linearity
estimated target capacity ([4]; two-compartment TMDD population pharmacokinetics model): ~2.5 mg
residence time [5]: 8.92 min
IC50 [6]: 17 nM
Ki [6]: 5.3 nM
Ki [7]: 12.6 nM
Glucose, least squares mean (standard error) ([8]; Week 6/EOT): 7.61 (0.556) mmol/L
HbA1c, least squares mean (standard error) ([8]; Week 6/EOT): 7.1%
TG, least squares mean (standard error) ([8]; Week 6/EOT): 1.68 (0.202) mmol/L
TC, least squares mean (standard error) ([8]; Week 6/EOT, N = 36): 3.95 (0.120) mmol/L
Glucose, least squares mean (standard error) ([8]; Week 8/EOS): 7.78 (0.546) mmol/L
HbA1c, least squares mean (standard error) ([8]; Week 8/EOS): 7.02%
TC, least squares mean (standard error) ([8]; Week 8/EOS): 4.16 (0.105) mmol/L
TG, least squares mean (standard error) ([8]; Week 8/EOS): 1.63 (0.113) mmol/L
effective dose range [9]: below 10 mg daily
total target amount in the central compartment (RTOT) [10]: 7.84 µM
